Tests used:
[1] = biological target: c-Cbl (Homo sapiens (Human), UniProt P22681); assay: C-Cbl LCK Ub TR-FRET assay (C-cbl Lck HTRF); type: biochemical
How it was run: (§1)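 After the ubiquitination reaction, detection mixture was added and plates incubated 20 min at room temperature before reading. IC50 values were calculated with wells lacking LCK as the low control and DMSO as the high control.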

[2] = biological target: Human Cbl-b (residues 40-426) (Homo sapiens (Human), UniProt Q13191); assay: Cbl-b SPR assay; type: binding; conditions: for Fold of selectivity: C-cbl SPR Kd vs Cbl-b SPR Kd; for Kd: SPR, 20° C.
Chain of Human Cbl-b (residues 40-426) (Q13191 40-426): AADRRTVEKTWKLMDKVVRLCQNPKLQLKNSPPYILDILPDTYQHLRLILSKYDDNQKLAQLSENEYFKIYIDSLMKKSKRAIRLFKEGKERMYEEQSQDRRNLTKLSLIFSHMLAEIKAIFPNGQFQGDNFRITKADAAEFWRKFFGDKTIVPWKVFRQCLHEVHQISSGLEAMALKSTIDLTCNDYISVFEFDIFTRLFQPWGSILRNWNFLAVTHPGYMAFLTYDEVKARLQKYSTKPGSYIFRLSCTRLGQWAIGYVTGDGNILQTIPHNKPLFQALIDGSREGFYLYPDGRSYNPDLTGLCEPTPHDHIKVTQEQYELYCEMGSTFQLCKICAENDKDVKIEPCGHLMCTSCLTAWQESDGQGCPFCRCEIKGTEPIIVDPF
How it was run: (§2)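 Where a chaser compound was used, % compound bound was calculated as (1−(RUT/RUT0))*100 relative to a prior chaser injection and fitted to a single exponential for kd. The single cycle titration (max 500 nM) was then fitted with kd held fixed.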

[3] = biological target: c-Cbl (residues 47-435) (Homo sapiens (Human), UniProt P22681); assay: c-Cbl SPR assay; type: binding; conditions: 20° C.
Chain of c-Cbl (residues 47-435) (P22681 47-435): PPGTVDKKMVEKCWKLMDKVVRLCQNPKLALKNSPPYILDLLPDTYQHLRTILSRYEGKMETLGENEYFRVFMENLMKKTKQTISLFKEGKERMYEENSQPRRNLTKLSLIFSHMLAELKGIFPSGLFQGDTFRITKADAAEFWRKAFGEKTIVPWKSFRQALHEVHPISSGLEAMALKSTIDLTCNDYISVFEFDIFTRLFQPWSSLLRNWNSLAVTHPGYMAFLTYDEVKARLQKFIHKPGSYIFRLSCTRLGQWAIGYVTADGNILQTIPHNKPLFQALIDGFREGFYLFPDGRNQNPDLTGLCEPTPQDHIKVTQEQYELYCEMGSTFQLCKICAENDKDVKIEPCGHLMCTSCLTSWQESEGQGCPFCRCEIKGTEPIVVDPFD
How it was run: as §2

[4] = biological target: Cbl-b (Homo sapiens (Human), UniProt Q13191); assay: Cbl-b LCK Ub TR-FRET assay (Cbl-b Lck HTRF); type: biochemical; conditions: for IC50: Cbl-b LCK Ub TR-FRET; for fold-selectivity (Cbl-b over C-cbl) / (fold-selectivity) Cbl-b and C-Cbl Selectivity: ratio C-cbl Lck HTRF IC50 / Cbl-b Lck HTRF IC50
Chain of Cbl-b (Q13191 40-426): as the sequence (Q13191 40-426) above
How it was run: as §1

Chain of c-Cbl (P22681 47-435): as the sequence (P22681 47-435) above

IC50 [1] | Fold of selectivity [2] | Kd [2] | Kd [3] | IC50 [4] | fold-selectivity (Cbl-b over C-cbl) [4] | IC50 ([4]; Example 121) | (fold-selectivity) Cbl-b and C-Cbl Selectivity [4] | SMILES
240 nM | 2.8× | 46 nM | 130 nM | 63 nM | 3.8x |  |  | C=CCOc1cc(N2Cc3c(cc(CNC4(C)CCC4)cc3C(F)(F)F)C2=O)cc([C@]2(c3nncn3C)C[C@@H](OC)C2)c1 [Compound 205, 2-(3-(allyloxy)-5-((1s,3s)-3-methoxy-1-(4-methyl-4H-1,2,4-triazol-3-yl)cyclobutyl)phenyl)-6-(((1-methylcyclobutyl)amino)methyl)-4-(trifluoromethyl)isoindolin-1-one]
7.8 nM | 3.4× | 1.9 nM | 6.5 nM | 6.2 nM | 1.2x |  |  | CCNc1cc([C@]2(c3nncn3C)C[C@@H](C)C2)cc(N2Cc3c(cc(CNC4(C)CCC4)cc3C(F)(F)F)C2=O)c1F [Compound 337, 2-(3-(ethylamino)-2-fluoro-5-((1s,3s)-3-methyl-1-(4-methyl-4H-1,2,4-triazol-3-yl)cyclobutyl)phenyl)-6-(((1-methylcyclobutyl)amino)methyl)-4-(trifluoromethyl)isoindolin-1-one]
8.3 nM | 2.0× | 0.37 nM | 0.74 nM | 9.8 nM | 0.85x |  |  | CCOc1cc(N2Cc3c(cc(CNC4(C)CCC4)cc3C(F)(F)F)C2=O)cc([C@]2(c3nncn3C)C[C@@H](C)C2)c1 [Compound 181, 2-(3-ethoxy-5-((1s,3s)-3-methyl-1-(4-methyl-4H-1,2,4-triazol-3-yl)cyclobutyl)phenyl)-6-(((1-methylcyclobutyl)amino)methyl)-4-(trifluoromethyl)isoindolin-1-one]
118 nM | 20× | 11 nM | 220 nM | 11 nM | 8.4x |  |  | CO[C@H]1C[C@](c2cc(NC3CCCC3)nc(N3Cc4c(cc(CNC5(C)CCC5)cc4C(F)(F)F)C3=O)c2)(c2nncn2C)C1 [Compound 9, 2-(6-(cyclopentylamino)-4-((1r,3r)-3-methoxy-1-(4-methyl-4H-1,2,4-triazol-3-yl)cyclobutyl)pyridin-2-yl)-6-(((1-methylcyclobutyl)amino)methyl)-4-(trifluoromethyl)isoindolin-1-one]
23 nM | 6.3× | 5 nM | 31 nM | 9.8 nM | 2.4x |  |  | Cn1cnnc1C1(c2cccc(N3Cc4c(cc(CNC5(C)CCC5)cc4C(F)(F)F)C3=O)c2)CCCC1 [Compound 292, 2-(3-(1-(4-methyl-4H-1,2,4-triazol-3-yl)cyclopentyl)phenyl)-6-(((1-methylcyclobutyl)amino)methyl)-4-(trifluoromethyl)isoindolin-1-one]
180 nM | 10× | 9.9 nM | 99 nM | 59 nM | 2.8x |  |  | Cn1cnnc1[C@]1(c2cc(NC3CCCC3)cc(N3Cc4c(cc(CNC5(C)CCC5)cc4C(F)(F)F)C3=O)c2)C[C@H](C)C1 [Compound 177, 2-(3-(cyclopentylamino)-5-((1s,3s)-3-methyl-1-(4-methyl-4H-1,2,4-triazol-3-yl)cyclobutyl)phenyl)-6-(((1-methylcyclobutyl)amino)methyl)-4-(trifluoromethyl)isoindolin-1-one]
42 nM | 15× | 3.5 nM | 52 nM |  |  | 9.3 nM | 4.5x | CO[C@H]1C[C@](c2cccc(N3Cc4c(cc(CNCC5(CF)CCC5)cc4C(F)(F)F)C3=O)c2)(c2nncn2C)C1 [Compound 507, 6-((((1-(fluoromethyl)cyclobutyl)methyl)amino)meth-yl)-2-(3-((1r,3r)-3-methoxy-1-(4-methyl-4H-1,2,4-triazol-3-yl)cyclobutyl)phenyl)-4-(trifluoromethyl)isoindolin-1-one]

Second part, the molecule before the results:

SMILES | IC50 [1] | Fold of selectivity [2] | Kd [2] | Kd [3] | IC50 [4] | fold-selectivity (Cbl-b over C-cbl) [4] | IC50 ([4]; Example 121) | (fold-selectivity) Cbl-b and C-Cbl Selectivity [4]
Cn1cnnc1[C@H](c1cccc(N2Cc3c(cc(CNC4(C)CCC4)cc3C(F)(F)F)C2=O)c1)C1CCCC1 [Compound 257, (S)-2-(3-(cyclopentyl(4-methyl-4H-1,2,4-triazol-3-yl)methyl)phenyl)-6-(((1-methylcyclobutyl)amino)methyl)-4-(trifluoromethyl)isoindolin-1-one] | 27 nM | 5.7× | 0.65 nM | 3.7 nM | 22 nM | 1.2x |  | 
CO[C@H]1C[C@](c2cccc(N3Cc4c(cc(CN[C@@H]5C[C@H]5C)cc4C(F)(F)F)C3=O)c2)(c2nncn2C)C1 [Compound 502, 2-(3-((1r,3R)-3-methoxy-1-(4-methyl-4H-1,2,4-triazol-3-yl)cyclobutyl)phenyl)-6-((((1R,2R)-2-methylcyclopropyl)amino)methyl)-4-(trifluoromethyl)isoindolin-1-one] | 39 nM | 14× | 5 nM | 69 nM |  |  | 9.4 nM | 4.1x
C[C@@H](NC1(C)CCC1)c1cc2c(c(C(F)F)c1)CN(c1cccc([C@H](c3nncn3C)C3COC3)c1)C2=O (single isomer, unassigned) [Compound 412] | 59 nM | 16× | 5.2 nM | 82 nM |  |  | 14 nM | 4.2x
Cn1cnnc1[C@@H](c1cccc(N2Cc3c(cc(CNC4(C)CCC4)cc3C(F)(F)F)C2=O)c1)[C@H]1C[C@H](C#N)C1 (single isomer, unassigned) [Compound 139] | 1300 nM | 4.6× | 220 nM | 1000 nM | 350 nM | 3.6x |  | 
Cn1cnnc1[C@H](c1cccc(N2Cc3c(cc(CNC4(C)CCC4)cc3C(F)(F)F)C2=O)c1)C1CCOCC1.O=CO (single isomer, unassigned) [Compound 291, (S)-2-(3-((4-methyl-4H-1,2,4-triazol-3-yl)(tetrahydro-2H-pyran-4-yl)methyl)phenyl)-6-(((1-methylcyclobutyl)amino)methyl)-4-(trifluoromethyl)isoindolin-1-one formate] | 47 nM |  | 62 nM | 130 nM | 11 nM |  |  | 
CO[C@H]1C[C@](c2cccc(N3Cc4c(cc(CNC5CC6C(C5)C6(F)F)cc4C(F)(F)F)C3=O)c2)(c2nncn2C)C1 (stereo partly shown) [Compound 427, 6-(((6,6-difluorobicyclo[3.1.0]hexan-3-y)amino)methyl)-2-(3-((1r,3r)-3-methoxy-1-(4-methyl-4H-1,2,4-triazol-3-yl)cyclobutyl)phenyl)-4-(trifluoromethyl)isoindolin-1-one] | 22 nM | 14× | 2.6 nM | 37 nM |  |  | 7 nM | 3.1x
Cn1cnnc1[C@@H](c1cccc(N2Cc3c(cc(CNC4(C)CCC4)cc3C(F)(F)F)C2=O)c1)C1CC(OC(F)F)C1 (single isomer, unassigned) [Compound 387] | 1000 nM | 9.5× | 200 nM | 1900 nM | 130 nM | 7.8x |  | 
Cn1cnnc1C1(c2cccc(N3Cc4c(cc(C(CF)NC5(C)CCC5)cc4C(F)(F)F)C3=O)c2)CCC1 (stereo not shown) [Compound 453, 6-(2-fluoro-1-((1-methylcyclobutyl)amino)ethyl)-2-(3-(1-(4-methyl-4H-1,2,4-triazol-3-yl)cyclobutyl)phenyl)-4-(trifluoromethyl)isoindolin-1-one] | 11 nM | 2.8× | 1.7 nM | 4.8 nM |  |  | 6.6 nM | 1.7x
CC(C)[C@](O)(c1cccc(N2Cc3c(cc(CNC4(C)CCC4)cc3C(F)(F)F)C2=O)c1)c1nncn1C [Compound 310, (S)-2-(3-(1-hydroxy-2-methyl-1-(4-methyl-4H-1,2,4-triazol-3-yl)propyl)phenyl)-6-(((1-methylcyclobutyl)amino)methyl)-4-(trifluoromethyl)isoindolin-1-one] | 110 nM | 3.7× | 30 nM | 110 nM | 24 nM | 4.7x |  | 
CO[C@H]1C[C@@H]([C@@H](c2cccc(N3Cc4c(cc(CN5CCN(C)C[C@@H]5C(C)C)cc4C(F)(F)F)C3=O)c2)c2nncn2C)C1 (single isomer, unassigned) [Compound 14] | 1000 nM | 8.8× | 630 nM | 5500 nM | 630 nM | (1.6x) |  | 
CO[C@H]1C[C@](c2cccc(N3Cc4c(cc(CNC(C)C)cc4C(F)(F)F)C3=O)c2)(c2nncn2C)C1 [Compound 419, 6-((isopropylamino)methyl)-2-(3-((1r,3r)-3-methoxy-1-(4-methyl-4H-1,2,4-triazol-3-yl)cyclobutyl)phenyl)-4-(trifluoromethyl)isoindolin-1-one] | 190 nM | 8.2× | 32 nM | 240 nM |  |  | 29 nM | 6.7x

Reference: US12187709B2 (Genentech, Inc., priority 2021, dated 2025)
